Read-outs that look alike come from different tables or passages of the source.
Molecular target: T1, hTLR7 (Homo sapiens, UniProt Q9NYK1)
T1 construct: host or cells: HEK-Blue hTLR7 (HEK293-derived reporter cell line)
T1 sequence (Q9NYK1 27-1049): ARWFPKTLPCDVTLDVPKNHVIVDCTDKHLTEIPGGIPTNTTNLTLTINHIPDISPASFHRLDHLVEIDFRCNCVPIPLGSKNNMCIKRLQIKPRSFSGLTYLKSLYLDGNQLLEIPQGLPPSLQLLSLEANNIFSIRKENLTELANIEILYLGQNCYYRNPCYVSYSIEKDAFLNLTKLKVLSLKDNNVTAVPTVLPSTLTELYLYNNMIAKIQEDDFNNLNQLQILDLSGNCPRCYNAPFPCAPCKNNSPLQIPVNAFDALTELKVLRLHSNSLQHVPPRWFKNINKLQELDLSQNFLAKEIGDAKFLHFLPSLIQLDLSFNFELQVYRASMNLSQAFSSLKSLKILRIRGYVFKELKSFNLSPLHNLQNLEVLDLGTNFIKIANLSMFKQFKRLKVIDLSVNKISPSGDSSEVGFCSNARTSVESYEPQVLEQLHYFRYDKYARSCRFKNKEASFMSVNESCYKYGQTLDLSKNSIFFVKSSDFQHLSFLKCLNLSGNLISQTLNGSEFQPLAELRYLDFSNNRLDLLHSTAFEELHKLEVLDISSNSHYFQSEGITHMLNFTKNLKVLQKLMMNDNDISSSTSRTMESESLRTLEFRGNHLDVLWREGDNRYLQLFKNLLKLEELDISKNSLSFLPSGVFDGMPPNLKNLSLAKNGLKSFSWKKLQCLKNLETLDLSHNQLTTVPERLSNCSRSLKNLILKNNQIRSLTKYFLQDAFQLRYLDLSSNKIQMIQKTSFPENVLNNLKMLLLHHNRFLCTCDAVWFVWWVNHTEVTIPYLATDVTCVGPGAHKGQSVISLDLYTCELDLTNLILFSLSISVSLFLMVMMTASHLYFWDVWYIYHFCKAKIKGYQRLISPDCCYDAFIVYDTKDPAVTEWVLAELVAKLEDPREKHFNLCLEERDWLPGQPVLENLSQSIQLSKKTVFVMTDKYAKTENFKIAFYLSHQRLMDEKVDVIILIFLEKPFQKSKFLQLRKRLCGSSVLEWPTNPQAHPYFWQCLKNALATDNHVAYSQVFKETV
Assay: HEK-Blue hTLR7 reporter assay (NF-kB-induced SEAP, Quanti-Blue, OD 655 nm)
Assay type: cell-based
Conditions: for TLR7 activity / potency stated in words: FIGS. 6-9
Procedure: HEK-Blue™ hTLR7 cells were incubated in HEK-Blue™ Detection medium and stimulated with increasing concentrations of TLR7 or TLR8 or TLR7/8 agonists. […] The EC50 was determined from dose-response curve using Prism Software.

[1] = Table 14, FIG. 8, (DL) = drug linker, read-out: TLR7 EC50
[2] = text to FIG. 5B and FIG. 8, read-out: EC50 values (TLR7)

| SMILES | TLR7 activity / potency stated in words | EC50 [1] [nM] | also measured |
| --- | --- | --- | --- |
| CCOCc1nc2c(N)nc3ccccc3c2n1CCCCNC(=O)c1ccc(N)c(OC)c1 [AXC-807] | – | – | EC50 (Table 10, FIG. 5A, 24 h, read-out: TLR7 EC50): 413 nM |
| CCCCNc1nc(N)c2[nH]c(=O)n(Cc3ccc(NCCN(C)CCNC(=O)CON)nc3)c2n1 [AXC-868, N-(2-((2-(5-((6-amino-2-(butylamino)-8-oxo-7H-purin-9(8H)-yl)methyl)pyridin-2-ylamino)ethyl)(methyl)amino)ethyl)-2-(aminooxy)acetamide] | – | – | EC50 (Table 12, FIG. 6, TLR7 agonists attached to a linker, read-out: TLR Agonist Payload + Linkers EC50): > 5000 nM |
| CCCCOc1nc(N)c2[nH]c(=O)n(Cc3ccc(CN4CCC(CCNC(=O)CON)CC4)cc3)c2n1 [AXC-879, N-(2-(1-(4-((6-amino-2-butoxy-8-oxo-7H-purin-9(8H)-yl)methyl)benzyl)piperidin-4-yl)ethyl)-2-(aminooxy)acetamide] | highest potency | – | – |
| CCCCOc1nc(N)c2[nH]c(=O)n(Cc3ccc(CN4CCC(CCNC(=O)c5ccc(N)c(OC)c5)CC4)cc3)c2n1 [AXC-895, 4-amino-N-(2-(1-(4-((6-amino-2-butoxy-8-oxo-7H-purin-9(8H)-yl)methyl)benzyl)piperidin-4-yl)ethyl)-3-methoxybenzamide] | highest potency | – | – |
| CCCCOc1nc(N)c2[nH]c(=O)n(Cc3ccc(CN4CCC(C5CCN(C(=O)CON)CC5)CC4)cc3)c2n1 [AXC-901, 6-amino-9-(4-((1′-(2-(aminooxy)acetyl)-4,4′-bipiperidin-1-yl)methyl)benzyl)-2-butoxy-7H-purin-8(9H)-one] | highest potency | – | – |
| CCCCOc1nc(N)c2[nH]c(=O)n(Cc3ccc(CN4CCC(CCNC(=O)c5cccc(N)c5)CC4)cc3)c2n1 [AXC-903, 3-amino-N-(2-(1-(4-((6-amino-2-butoxy-8-oxo-7,8-dihydro-9H-purin-9-yl)methyl)benzyl)piperidin-4-yl)ethyl)benzamide] | – | 4.3 | EC50 [2]: < 10 nM |
| CCCCOc1nc(N)c2[nH]c(=O)n(Cc3ccc(CN4CCC(CCNC(=O)c5ccc(CCN)cc5)CC4)cc3)c2n1 [AXC-904, N-(2-(1-(4-((6-amino-2-butoxy-8-oxo-7,8-dihydro-9H-purin-9-yl)methyl)benzyl)piperidin-4-yl)ethyl)-4-(2-aminoethyl)benzamide] | – | 8.1 | EC50 [2]: < 10 nM |
| CCCCOc1nc(N)c2[nH]c(=O)n(Cc3ccc(CN4CCC(CCNC(=O)c5ccc(N)cc5)CC4)cc3)c2n1 [AXC-905, 4-amino-N-(2-(1-(4-((6-amino-2-butoxy-8-oxo-7,8-dihydro-9H-purin-9-yl)methyl)benzyl)piperidin-4-yl)ethyl)benzamide] | – | 2.6 | – |

Reference: patent US12569566B2, “Compositions containing, methods and uses of antibody-TLR agonist conjugates” (Ambrx, Inc., priority 2019, dated 2026)
